In the first assay the test system is SR cells (NPM-ALK, human anaplastic large cell lymphoma cells). Put plainly: Proliferation inhibition (IC50) in SR cells, CCK8 (WST) reagent. Type of assay: cell-based. Conditions: 72 h, SR cells, WST reagent, 72 hours, read-out: IC50 (half inhibitory concentration), Brigatinib series in lymphoma cell lines. The method, then: The ALK gene rearrangement positive cell line used was SR cells (NPM-ALK, human anaplastic large cell lymphoma cells). MDA-MB231 was a triple-negative breast cancer cell. Both SR cells and MDA-MB231 cells were purchased from ATCC.
The tumor cell line used was daily cultured in a 37° C. incubator containing 5% CO2. The medium was RPMI1640 supplemented with 10% FCS and Penicillin-Streptomycin.
The IC50 of the compound of the present disclosure was determined using Promega's Cell Titer Blue, Cell Titer GLO or commercially available WST reagents. The specific steps were as follows: the cells were seeded in a 96-well plate containing 100 microliters of RPMI medium containing serum at a number of 2000 cells/well. On the second day, the original drug and the compound of the present disclosure were serially diluted and added to the cells. After 72 hours of treatment with the compound of the present disclosure, the cell activity detection reagent was added to the culture medium for cell activity determination according to the instructions. The negative control was DMSO, and the positive control was the original drug, and the cells were treated in the same manner as the compound of the present disclosure. The growth inhibition of the compounds of the present disclosure on cells was plotted by Prism Graphpad software and the IC50 of the compounds of the present disclosure was counted from it.
We conducted dose-dependent experiments on the designed and synthesized compounds of the present disclosure in SR cells. […] The cells were treated with different concentrations of compounds (starting at 10 μM, 3 times dilution factor, 10 concentrations). After 72 hours, the cells were detected using CCK8 reagent (WST).
As for `COc1cc(N2CCC(N3CCN(C(=O)NCCCCSc4cccc5c4CN(C4CCC(=O)NC4=O)C5=O)CC3)CC2)ccc1Nc1ncc(Cl)c(Nc2ccccc2P(C)(C)=O)n1` (stereo not drawn) [SIAIS353062, 4-(1-(4-((5-chloro-4-((2-(dimethylphosphono)phenyl)amino)pyrimidin-2-yl)amino)-3-methoxyphenyl)piperidin-4-yl)-N-(4-((2-(2,6-dioxopiperidin-3-yl)-1-oxoisoindolin-4-yl)thio)butyl)piperazine-1-carboxamide], the IC50 turned out to be 0.6 ± 0.4 nM.

On to `COc1cc(N2CCC(N3CCN(CCCCCC#Cc4cccc5c4CN(C4CCC(=O)NC4=O)C5=O)CC3)CC2)ccc1Nc1ncc(Cl)c(Nc2ccccc2P(C)(C)=O)n1` (stereo not drawn) [SIAIS293015, 3-(4-(7-(4-(1-(4-((5-chloro-4-((2-(dimethylphosphono)phenyl)amino)pyrimidin-2-yl)amino)-3-methoxyphenyl)piperidin-4-yl)piperazin-1-yl)hept-1-yn-1-yl)-1-oxoisoindolin-2-yl)piperidine-2,6-dione], for which the IC50 was 1.2 nM.

For `COc1cc(N2CCC(N3CCN(CCCC#Cc4cccc5c4C(=O)N(C4CCC(=O)NC4=O)C5=O)CC3)CC2)ccc1Nc1ncc(Cl)c(Nc2ccccc2P(C)(C)=O)n1` (stereo not drawn) [SIAIS352010, 4-(5-(4-(1-(4-((5-chloro-4-((2-(dimethylphosphono)phenyl)amino)pyrimidin-2-yl)amino)-3-methoxyphenyl)piperidin-4-yl)piperazin-1-yl)pent-1-yn-1-yl)-2-(2,6-dioxopiperidin-3-yl)isoindoline-1,3-dione], the IC50 was found to be 19 ± 5.8 nM.

As to `COc1cc(N2CCC(N(C)CCCCCSc3cccc4c3CN(C3CCC(=O)NC3=O)C4=O)CC2)ccc1Nc1ncc(Cl)c(Nc2ccccc2P(C)(C)=O)n1` (stereo not drawn) [SIAIS353044, 3-(4-((5-((1-(4-((5-chloro-4-((2-(dimethylphosphono)phenyl)amino)pyrimidin-2-yl)amino)-3-methoxyphenyl)piperidin-4-yl)(methyl)amino)pentyl)thio)-1-oxoisoindolin-2-yl)piperidine-2,6-dione], the IC50 was 1.1 ± 0.2 nM.

On to `COc1cc(N2CCC(N(C)C(=O)CCCCCSc3cccc4c3CN(C3CCC(=O)NC3=O)C4=O)CC2)ccc1Nc1ncc(Cl)c(Nc2ccccc2P(C)(C)=O)n1` (stereo not drawn) [SIAIS353009, N-(1-(4-((5-chloro-4-((2-(dimethylphosphono)phenyl)amino)pyrimidin-2-yl)amino)-3-methoxyphenyl)piperidin-4-yl)-6-((2-(2,6-dioxopiperidin-3-yl)-1-oxoisoindolin-4-yl)thio)-N-methyl hexanamide], for which the IC50 stood at 10.5 ± 5.6 nM.

For `COc1cc(N2CCC(N3CCN(C(=O)COCCOCCOCCOCCNc4cccc5c4CN(C4CCC(=O)NC4=O)C5=O)CC3)CC2)ccc1Nc1ncc(Cl)c(Nc2ccccc2P(C)(C)=O)n1` (stereo not drawn) [SIAIS352056, 3-(4-((14-(4-(1-(4-((5-chloro-4-((2-(dimethylphosphono)phenyl)amino)pyrimidin-2-yl)amino)-3-methoxyphenyl)piperidin-4-yl)piperazin-1-yl)-14-oxo-3,6,9,12-tetraoxatetradecyl)amino)-1-oxoisoindolin-2-yl)piperidine-2,6-dione], the IC50 stood at 84.5 ± 17.3 nM.

With `COc1cc(N2CCC(N3CCN(C(=O)COCCOCCNc4cccc5c4CN(C4CCC(=O)NC4=O)C5=O)CC3)CC2)ccc1Nc1ncc(Cl)c(Nc2ccccc2P(C)(C)=O)n1` (stereo not drawn) [SIAIS352054, 3-(4-((2-(2-(2-(4-(1-(4-((5-chloro-4-((2-(dimethylphosphono)phenyl)amino)pyrimidine-2-yl)amino)-3-methoxyphenyl)piperidin-4-yl)piperazin-1-yl)-2-oxoethoxy)ethoxy)ethyl)amino)-1-oxoisoindolin-2-yl)piperidine-2,6-dione], the IC50 amounted to 22 ± 10.9 nM.

`COc1cc(N2CCC(N(C)CCCCCCSc3cccc4c3CN(C3CCC(=O)NC3=O)C4=O)CC2)ccc1Nc1ncc(Cl)c(Nc2ccccc2P(C)(C)=O)n1` (stereo not drawn) [SIAIS353041, 3-(4-((6-((1-(4-((5-chloro-4-((2-(dimethylphosphono)phenyl)amino)pyrimidin-2-yl)amino)-3-methoxyphenyl)piperidin-4-yl)(methyl)amino)hexyl)thio)-1-oxoisoindolin-2-yl)piperidine-2,6-dione]: the IC50 was determined as 0.5 ± 0.2 nM.

`COc1cc(N2CCC(N3CCN(C(=O)COc4cccc5c4C(=O)N(C4CCC(=O)NC4=O)C5=O)CC3)CC2)ccc1Nc1ncc(Cl)c(Nc2ccccc2P(C)(C)=O)n1` (stereo not drawn) [SIAIS293016, 4-(2-(4-(1-(4-((5-chloro-4-((2-(dimethylphosphono)phenyl)amino)pyrimidin-2-yl)amino)-3-methoxyphenyl)piperidin-4-yl)piperazin-1-yl)-2-oxoethoxy)-2-(2,6-dioxopiperidin-3-yl)isoindoline-1,3-dione]: the IC50 was found to be 7.2 nM.

Still in this assay, the particulars now being: 72 h, read-out: IC50 (half inhibitory concentration), Alectinib series in lymphoma cell lines, SR cells, WST reagent, 72 hours.
On to `CCc1cc2c(cc1N1CCC(N3CCN(CCCCCNc4cccc5c4C(=O)N(C4CCC(=O)NC4=O)C5=O)CC3)CC1)C(C)(C)c1[nH]c3cc(C#N)ccc3c1C2=O` (stereo not drawn) [SIAIS293008, 8-(4-(4-(5-((2-(2,6-dioxopiperidin-3-yl)-1,3-dioxoisoindolin-4-yl)amino)pentyl)piperazin-1-yl)piperidin-1-yl)-9-ethyl-6,6-dimethyl-11-oxo-6,11-dihydro-5H-benzo[b]carbazole-3-carbonitrile], for which the IC50 amounted to 5.2 nM.

For the compound `CCc1cc2c(cc1N1CCC(N3CCN(C(=O)CCCCNc4cccc5c4CN(C4CCC(=O)NC4=O)C5=O)CC3)CC1)C(C)(C)c1[nH]c3cc(C#N)ccc3c1C2=O` (stereo not drawn) [SIAIS262093, 8-(4-(4-(5-((2-(2,6-dioxopiperidin-3-yl)-1-oxoisoindolin-4-yl)amino)pentanoyl)piperazin-1-yl)piperidin-1-yl)-9-ethyl-6,6-dimethyl-11-oxo-6,11-dihydro-5H-benzo[b]carbazole-3-carbonitrile], the IC50 was determined as 2.65 ± 1.72 nM.

`CCc1cc2c(cc1N1CCC(N3CCN(C(=O)CCCNc4cccc5c4CN(C4CCC(=O)NC4=O)C5=O)CC3)CC1)C(C)(C)c1[nH]c3cc(C#N)ccc3c1C2=O` (stereo not drawn) [SIAIS262092, 8-(4-(4-(4-((2-(2,6-dioxopiperidin-3-yl)-1-oxoisoindolin-4-yl)amino)butyryl)piperazin-1-yl)piperidin-1-yl)-9-ethyl-6,6-dimethyl-11-oxo-6,11-dihydro-5H-benzo[b]carbazole-3-carbonitrile]: the IC50 amounted to 1.37 ± 0.87 nM.

Regarding `CCc1cc2c(cc1N1CCC(N3CCN(C(=O)CCCCCCNc4cccc5c4CN(C4CCC(=O)NC4=O)C5=O)CC3)CC1)C(C)(C)c1[nH]c3cc(C#N)ccc3c1C2=O` (stereo not drawn) [SIAIS262095, 8-(4-(4-(7-((2-(2,6-dioxopiperidin-3-yl)-1-oxoisoindolin-4-yl)amino)heptanoyl)piperazin-1-yl)piperidin-1-yl)-9-ethyl-6,6-dimethyl-1-oxo-6,11-dihydro-5H-benzo[b]carbazole-3-carbonitrile], the IC50 was 3.2 ± 1.93 nM.

`CCc1cc2c(cc1N1CCC(N3CCN(CCCCc4cccc5c4CN(C4CCC(=O)NC4=O)C5=O)CC3)CC1)C(C)(C)c1[nH]c3cc(C#N)ccc3c1C2=O` (stereo not drawn) [SIAIS293005, 8-(4-(4-(4-(2-(2,6-dioxopiperidin-3-yl)-1-oxoisoindolin-4-yl)butyl)piperazin-1-yl)piperidin-1-yl)-9-ethyl-6,6-dimethyl-11-oxo-6,11-dihydro-5H-benzo[b]carbazole-3-carbonitrile]: the IC50 amounted to 1.9 nM.

With `CCc1cc2c(cc1N1CCC(N3CCN(CCCCCc4cccc5c4CN(C4CCC(=O)NC4=O)C5=O)CC3)CC1)C(C)(C)c1[nH]c3cc(C#N)ccc3c1C2=O` (stereo not drawn) [SIAIS350083, 8-(4-(4-(5-(2-(2,6-dioxopiperidin-3-yl)-1-oxoisoindolin-4-yl)pentyl)piperazin-1-yl)piperidin-1-yl)-9-ethyl-6,6-dimethyl-11-oxo-6,11-dihydro-5H-benzo[b]carbazole-3-carbonitrile], the IC50 is 1.1 ± 0.7 nM.

As to `CCc1cc2c(cc1N1CCC(NC(=O)CCCCNc3cccc4c3CN(C3CCC(=O)NC3=O)C4=O)CC1)C(C)(C)c1[nH]c3cc(C#N)ccc3c1C2=O` (stereo not drawn) [SIAIS293012, N-(1-(3-cyano-9-ethyl-6,6-dimethyl-11-oxo-6,11-dihydro-5H-benzo[b]carbazol-8-yl)piperidin-4-yl)-5-((2-(2,6-dioxopiperidin-3-yl)-1-oxoisoindolin-4-yl)amino)pentanamide], the IC50 is 10.3 ± 5.1 nM.

In the case of `CCc1cc2c(cc1N1CCC(N3CCN(CCCCCC#Cc4cccc5c4CN(C4CCC(=O)NC4=O)C5=O)CC3)CC1)C(C)(C)c1[nH]c3cc(C#N)ccc3c1C2=O` (stereo not drawn) [SIAIS293014, 8-(4-(4-(7-(2-(2,6-dioxopiperidin-3-yl)-1-oxoisoindolin-4-yl)hept-6-yn-1-yl)piperazin-1-yl)piperidin-1-yl)-9-ethyl-6,6-dimethyl-11-oxo-6,11-dihydro-5H-benzo[b]carbazole-3-carbonitrile], the IC50 came to 3.2 nM.

Regarding `CCc1cc2c(cc1N1CCC(N)CC1)C(C)(C)c1[nH]c3cc(C#N)ccc3c1C2=O` [Alectinib derivative B (SIAIS184193), 8-(4-aminopiperidin-1-yl)-9-ethyl-6,6-dimethyl-11-oxo-6,11-dihydro-5H-benzo[b]carbazole-3-carbonitrile], the IC50 stood at 9.1 ± 5.5 nM.

The record behind these values is patent US12390532B2, “ALK protein regulator and anti-tumor application thereof” (SHANGHAITECH UNIVERSITY, priority 2019, dated 2025).
